The values that follow come from patent US8129423B2, “Imidazolone and imidazoloidinone derivatives as 11b-HSD1 inhibitors” (Hoffman-La Roche Inc., priority 2006, dated 2012).

As usually defined, the pIC50 is the negative decadic logarithm of the IC50, by convention in mol/L.

Experiment [1] concerns the target T1, 11beta-HSD1 (Homo sapiens, UniProt P28845). The experiment in a line: Microsome assay: cortisone to cortisol conversion, ELISA-based cortisol detection. In kind it is biochemical. On the set-up: made in house; host or cells: HEK293 cells (ATCC CRL-1573), transient transfection with lipofectamine; microsomal fraction. The following applies: microsomes from HEK293 cells transiently expressing human 11beta-HSD1; cortisone 50-200 nM, NADPH 1 mM, 60 min, 37° C.; read-out: h 11-beta-HSD 1 IC50. As to the method:
The cDNA encoding the human 11beta-HSD1 protein was cloned into the expression vector pcDNA3 ([…]). This construct (for details see Alex Odermatt et al.; J Biol. Chem., 1999, Vol. 274, Issue 40, 28762-28770) was used to transiently express the protein in HEK293 cells (ATCC number: CRL-1573, described in Graham, F. L., Smiley, J., Russell, W. C., Nairn, R.; (1977)) using lipofectamine. 48 h after transfection cells were washed twice with ice-cold PBS (Phsophate buffered Saline). To 1 volume of cell suspension in PBS 2 volumes of ice-cold lysis buffer (50 mM Tris; pH7.5; 1 mM EDTA; 100 mM NaCl) were added. The cells were lysed by Potter-homogenization (20 strokes). The resulting homogenate was sonicated with a tip sonicator (10% output; 2×30 sec.) and cleared by a low speed centrifugation (10 min×9000 g; 4° C.). The microsomal fraction was collected by a high speed centrifugation (60 min×110,000 g). The resulting pellet was resuspended in storage buffer (20 mM Tris pH 7.5; 1 mM EDTA; 10% Glycerol) and the centrifugation was repeated. The resulting pellet containing the microsomal fraction was again taken up into storage buffer and aliquots were kept frozen in liquid Nitrogen until use.
Microsomes isolated from HEK293 cells transiently expressing human 11beta-HSD1 (for details see above) were incubated in assay buffer (100 mM NaCl; 1 mM EDTA; 1 mM EGTA; 1 mM MgCl; 250 mM Sucrose; 20 mM Tris pH 7.4; Cortisone 50-200 nM and NADPH 1 mM) together with different concentrations of test substances. After 60 min. of incubation at 37° C. the assay was stopped by heating to 80° C. (5 min.) and by addition of the inhibitor Carbenoxolone (1 uM). The amount of Cortisol produced in this assay was determined using a commercially available, ELISA-based Cortisol-detection kit (Distributed by Assay Design, Inc.). Inhibitors were characterized by their IC50 values, e.g. the concentration at which the production of cortisol was 50% reduced.
(In general: In an ELISA, binding on a coated surface is turned into a signal by an enzyme label.)

Experiment [2] has as its target T1, 11beta-HSD1. Further details: host or cells: in vivo treatment of human subjects. The following applies: in man, treatment with carbenoxolone; cited from earlier work.

pIC50: −log10 of the molar value.

T1 sequence (P28845 whole entry): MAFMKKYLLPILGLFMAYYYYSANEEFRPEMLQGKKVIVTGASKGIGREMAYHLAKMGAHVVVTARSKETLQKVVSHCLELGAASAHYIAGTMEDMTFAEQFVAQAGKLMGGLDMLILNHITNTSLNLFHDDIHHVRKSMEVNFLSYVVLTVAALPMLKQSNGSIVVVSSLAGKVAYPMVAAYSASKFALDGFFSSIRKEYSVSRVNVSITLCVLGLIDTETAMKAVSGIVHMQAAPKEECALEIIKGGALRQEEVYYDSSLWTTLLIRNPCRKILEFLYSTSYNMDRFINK

On to `O=c1[nH]c(CC(F)(F)F)cn1C1C2CC3CC(C2)CC1C3` (stereo not shown) [Example 16, 1-Adamantan-2-yl-4-(2,2,2-trifluoro-ethyl)-1,3-dihydro-imidazol-2-one], for which, on 11beta-HSD1 [1], the pIC50 is 7.41. Same read-out and setting: in the case of `CC(C)Cc1cn(-c2ccccc2OC(F)(F)F)c(=O)n1CC1CC1` [Example 45, 3-Cyclopropylmethyl-4-isobutyl-1-(2-trifluoromethoxy-phenyl)-1,3-dihydro-imidazol-2-one] it was 6.72; in that of `CC1(C2CC2)CN(C2C3CC4CC2CC(O)(C4)C3)C(=O)N1C1CC1` (stereo not shown) [Example 80, 3,4-Dicyclopropyl-1-[(E)-5-hydroxy-adamantan-2-yl]-4-methyl-imidazolidin-2-one], 8.52.

On to `CC1(C)[C@@H](OC(=O)CCC(=O)O)CC[C@]2(C)[C@H]3C(=O)C=C4[C@@H]5C[C@@](C)(C(=O)O)CC[C@]5(C)CC[C@@]4(C)[C@]3(C)CC[C@@H]12` [carbenoxolone], for which the insulin sensitivity result on 11beta-HSD1 [2] was “increase in insulin sensitivity”.
